Data from patent publication US10633579B2, “Use of environmentally friendly solvents to replace glycol-based solvents” (RHODIA OPERATIONS, priority 2011, dated 2020).

What was measured:
Assay type in all cases: physicochemical
[1] = Wettability of EGMBE compared with alternative solvents/blends
[2] = Miscibility test with common oilfield solvents (Tables 3-5); design: key: S = separate; M = miscible; conditions: 50/50 volume per volume; for Solubility in Crude oil: shaken about a minute, let stand about 5 mins
Protocol: For each test solvent, it is blended with a common solvent at 50/50 volume per volume ratio. It is shaken vigorously for about a minute and let stand for about 5 mins. A complete miscibility is recorded if there is no formation of layers. Formation of turbid mixture or multiple layers is recorded as immiscible or separate.

[3] = Surface tension by the ring method (Du Nouy method); conditions: undiluted solvent, about 50 milliliters sample
Protocol: Surface Tension: Referring generally to Table 2, interfacial tension is measured for each test solvent or solvent blend for EGMBE-replacement. No further dilution is performed on the solvent prior to measurement. Interfacial tension was measured using about 50 milliliters sample by the ring method (Du Nouy method).

[4] = Miscibility of alkyldimethylamides as stated in the text
[5] = Blends miscible in water and in mud solvents (Table 6); conditions: 50/50 wt, room temperature
Protocol: Miscibility Test: Referring generally to Tables 4-6, the test solvent or solvent blend for EGMBE-replacement is mixed with common solvents used in oilfield industries to determine miscibility. […] It is shaken vigorously for about a minute and let stand for about 5 mins. A complete miscibility is recorded if there is no formation of layers. Formation of turbid mixture or multiple layers is recorded as immiscible or separate.

SMILES	wettability, Mean (°) [1]	Solubility in Alpha Olefin C1618 [2]	Solubility in Brines (Forties FW) [2]	Solubility in D-Limonene [2]	Solubility in Dodecane (to mimic Kerosen) [2]	Solubility in Exxsol D100 [2]	Solubility in Solvesso 150 ND [2]	Solubility in Water [2]	Solubility in isoparrafin [2]	Solubility in isopropanol [2]	Solubility in toluene [2]	Solubility in xylene [2]	Solubility in Crude oil [2]	ST (surface tension) [3]	also measured
O [Water]	109.2 °														
COC(=O)C(C)CCC(=O)N(C)C (stereo not shown) [Polarclean]	48.9 °	S	M	M	S	S	M	M	S	M	M	M	S	33.871 mN/m	
CC1(C)OCC(CO)O1 (stereo not shown) [Augeo SL 191]	50.5 °	S	M	M	S	S	M	M	S	M	M	M	S	31.9988 mN/m	
CCCCOCC(C)O (stereo not shown) [Dowanol, propylene glycol n-butyl ether]	29.8 °	M	S	M	M	M	M	S	M	M	M	M	M		
CCCCOCCOCCO [Butyl Carbitol, diethylene glycol butyl ether]	50.8 °														
CC(C)O [IPA, isopropyl alcohol]		M	M	M	M	M	M	M	M	M	M	M	M		
CCCCCCCC(=O)N(C)C [N,N-dimethyloctanamide]															miscibility [4]: 0.43%
CCCCOCCO [EGMBE, ethyleneglycolmonobutyl ether]	45.0 °													26.3757 mN/m	Miscibility in Alpha Olefin C1618 [5]: miscible; Miscibility in D-Limonene [5]: miscible; Miscibility in Exxsol D100 [5]: miscible; Miscibility in Isopar L [5]: miscible; Miscibility in Water [5]: miscible; Miscibility in xylene [5]: miscible
